Reference: ChEMBL document CHEMBL5136990, “Histone deacetylase 6 inhibitors with blood-brain barrier penetration as a potential strategy for CNS-Disorders therapy” (Eur J Med Chem, 2022)
Values belong to the compound of their own block, whether it stands above or below them.

Tests used:
[1] = Inhibition of full-length recombinant human HDAC3/NcoR2 using RHKKAc peptide as substrate by fluorescence based assay
Histone deacetylase 2 [2] = biological target: T1, Histone deacetylase 2 (Homo sapiens, UniProt Q92769); assay: Inhibition of recombinant human HDAC2 using fluorogenic substrate
T1 sequence (Q92769 whole entry): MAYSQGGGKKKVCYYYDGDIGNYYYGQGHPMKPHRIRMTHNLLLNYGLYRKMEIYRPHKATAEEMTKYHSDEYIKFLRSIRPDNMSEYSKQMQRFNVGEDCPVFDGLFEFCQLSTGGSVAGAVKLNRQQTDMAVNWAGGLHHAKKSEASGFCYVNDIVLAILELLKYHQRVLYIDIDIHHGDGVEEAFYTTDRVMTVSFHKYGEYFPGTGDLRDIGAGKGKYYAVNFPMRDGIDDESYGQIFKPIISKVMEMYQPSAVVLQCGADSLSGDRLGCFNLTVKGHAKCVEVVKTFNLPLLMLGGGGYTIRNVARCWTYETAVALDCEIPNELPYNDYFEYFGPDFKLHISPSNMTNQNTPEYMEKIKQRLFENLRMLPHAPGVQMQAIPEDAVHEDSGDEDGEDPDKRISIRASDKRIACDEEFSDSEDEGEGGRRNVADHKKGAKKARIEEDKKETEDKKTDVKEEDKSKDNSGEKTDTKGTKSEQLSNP

Histone deacetylase 1 [3] = biological target: T2, Histone deacetylase 1 (Homo sapiens, UniProt Q13547); assay: Inhibition of recombinant human HDAC1 using fluorogenic substrate
T2 sequence (Q13547 whole entry): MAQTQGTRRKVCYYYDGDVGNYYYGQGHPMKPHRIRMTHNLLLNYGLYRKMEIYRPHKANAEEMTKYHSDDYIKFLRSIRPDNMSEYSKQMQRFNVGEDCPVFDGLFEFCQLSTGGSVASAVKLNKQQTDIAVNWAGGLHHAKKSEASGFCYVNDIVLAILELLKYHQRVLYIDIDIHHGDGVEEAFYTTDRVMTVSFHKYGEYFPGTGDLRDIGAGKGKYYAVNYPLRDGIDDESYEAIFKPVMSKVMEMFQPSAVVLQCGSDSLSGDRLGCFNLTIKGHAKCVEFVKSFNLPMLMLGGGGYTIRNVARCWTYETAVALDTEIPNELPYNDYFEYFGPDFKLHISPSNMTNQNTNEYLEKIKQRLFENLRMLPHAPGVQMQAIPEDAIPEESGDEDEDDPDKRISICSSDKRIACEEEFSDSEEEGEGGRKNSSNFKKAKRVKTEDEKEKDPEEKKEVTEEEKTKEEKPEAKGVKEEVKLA

[4] = biological target: T3, Polyamine deacetylase HDAC10 (Homo sapiens, UniProt Q969S8); assay: Inhibition of recombinant human HDAC10 using fluorogenic substrate
T3 sequence (Q969S8 whole entry): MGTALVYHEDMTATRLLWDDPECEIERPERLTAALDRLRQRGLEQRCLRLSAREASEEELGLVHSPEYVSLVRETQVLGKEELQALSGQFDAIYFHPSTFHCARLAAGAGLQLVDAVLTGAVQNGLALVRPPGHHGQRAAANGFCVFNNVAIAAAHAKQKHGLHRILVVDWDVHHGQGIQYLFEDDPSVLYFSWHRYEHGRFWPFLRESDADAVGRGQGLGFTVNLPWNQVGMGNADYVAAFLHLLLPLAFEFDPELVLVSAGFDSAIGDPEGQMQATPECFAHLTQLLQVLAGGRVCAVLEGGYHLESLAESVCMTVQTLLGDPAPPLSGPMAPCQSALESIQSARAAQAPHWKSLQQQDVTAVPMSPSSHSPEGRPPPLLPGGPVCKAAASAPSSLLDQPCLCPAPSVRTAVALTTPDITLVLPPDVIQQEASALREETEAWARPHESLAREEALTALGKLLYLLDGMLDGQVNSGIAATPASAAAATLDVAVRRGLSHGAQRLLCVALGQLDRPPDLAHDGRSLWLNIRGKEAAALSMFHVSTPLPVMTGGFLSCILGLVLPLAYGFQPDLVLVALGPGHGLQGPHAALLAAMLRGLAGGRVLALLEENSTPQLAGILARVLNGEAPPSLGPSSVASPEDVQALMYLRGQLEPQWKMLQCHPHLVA

Histone deacetylase 3 = Histone deacetylase 3 (Homo sapiens, UniProt O15379); assay: Inhibition of recombinant human HDAC3 using fluorogenic substrate
Chain of Histone deacetylase 3 (O15379 whole entry): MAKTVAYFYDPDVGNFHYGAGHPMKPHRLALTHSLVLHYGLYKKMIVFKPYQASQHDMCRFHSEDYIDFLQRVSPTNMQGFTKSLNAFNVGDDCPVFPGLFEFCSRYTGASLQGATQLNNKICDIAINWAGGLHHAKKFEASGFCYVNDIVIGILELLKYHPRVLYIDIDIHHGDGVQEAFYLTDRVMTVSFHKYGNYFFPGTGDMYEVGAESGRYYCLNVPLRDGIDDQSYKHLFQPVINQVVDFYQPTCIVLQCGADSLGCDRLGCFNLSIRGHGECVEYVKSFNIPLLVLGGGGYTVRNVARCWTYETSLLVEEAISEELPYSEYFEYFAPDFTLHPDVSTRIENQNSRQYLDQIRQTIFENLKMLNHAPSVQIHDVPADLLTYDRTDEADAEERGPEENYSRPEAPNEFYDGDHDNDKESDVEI

[5] = biological target: T4, Protein deacetylase HDAC6 (Homo sapiens, UniProt Q9UBN7); assay: Inhibition of HDAC6 (unknown origin)
T4 sequence (Q9UBN7 whole entry): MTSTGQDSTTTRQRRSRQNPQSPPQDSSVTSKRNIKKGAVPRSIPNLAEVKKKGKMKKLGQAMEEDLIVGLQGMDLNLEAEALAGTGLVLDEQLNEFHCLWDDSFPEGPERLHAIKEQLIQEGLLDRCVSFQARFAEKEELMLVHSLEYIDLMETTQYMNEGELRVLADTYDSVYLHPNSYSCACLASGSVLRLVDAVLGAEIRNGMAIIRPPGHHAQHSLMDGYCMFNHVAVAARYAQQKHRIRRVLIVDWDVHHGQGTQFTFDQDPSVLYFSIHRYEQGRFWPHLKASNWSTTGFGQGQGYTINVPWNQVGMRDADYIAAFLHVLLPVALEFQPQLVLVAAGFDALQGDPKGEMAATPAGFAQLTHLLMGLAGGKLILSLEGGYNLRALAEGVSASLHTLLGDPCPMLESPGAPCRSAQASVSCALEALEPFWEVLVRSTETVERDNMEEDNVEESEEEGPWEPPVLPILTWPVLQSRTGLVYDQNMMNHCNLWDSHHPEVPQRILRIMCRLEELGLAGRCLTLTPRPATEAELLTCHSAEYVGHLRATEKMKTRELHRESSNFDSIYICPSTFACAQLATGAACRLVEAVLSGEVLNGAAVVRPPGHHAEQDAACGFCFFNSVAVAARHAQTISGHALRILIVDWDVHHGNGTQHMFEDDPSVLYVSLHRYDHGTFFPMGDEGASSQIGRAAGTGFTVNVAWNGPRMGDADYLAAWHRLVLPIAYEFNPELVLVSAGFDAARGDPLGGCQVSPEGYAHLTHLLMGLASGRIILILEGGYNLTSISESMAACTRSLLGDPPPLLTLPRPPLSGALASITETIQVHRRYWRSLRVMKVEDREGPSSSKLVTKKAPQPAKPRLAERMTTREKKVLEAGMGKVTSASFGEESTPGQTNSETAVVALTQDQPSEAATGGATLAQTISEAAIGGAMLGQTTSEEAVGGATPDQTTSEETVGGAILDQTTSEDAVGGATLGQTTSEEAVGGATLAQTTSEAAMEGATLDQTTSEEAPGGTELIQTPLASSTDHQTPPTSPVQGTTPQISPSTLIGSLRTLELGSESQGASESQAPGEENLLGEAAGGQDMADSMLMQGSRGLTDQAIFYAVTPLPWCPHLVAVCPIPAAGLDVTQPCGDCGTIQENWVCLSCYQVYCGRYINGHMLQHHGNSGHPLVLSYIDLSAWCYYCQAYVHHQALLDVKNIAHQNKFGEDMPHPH

Histone deacetylase 2 [6] = biological target: T1, Histone deacetylase 2; assay: Inhibition of HDAC2 (unknown origin)
[7] = biological target: High affinity cGMP-specific 3',5'-cyclic phosphodiesterase 9A (Homo sapiens, UniProt O76083); assay: Inhibition of PDE9 (unknown origin)
Chain of High affinity cGMP-specific 3',5'-cyclic phosphodiesterase 9A (O76083 whole entry): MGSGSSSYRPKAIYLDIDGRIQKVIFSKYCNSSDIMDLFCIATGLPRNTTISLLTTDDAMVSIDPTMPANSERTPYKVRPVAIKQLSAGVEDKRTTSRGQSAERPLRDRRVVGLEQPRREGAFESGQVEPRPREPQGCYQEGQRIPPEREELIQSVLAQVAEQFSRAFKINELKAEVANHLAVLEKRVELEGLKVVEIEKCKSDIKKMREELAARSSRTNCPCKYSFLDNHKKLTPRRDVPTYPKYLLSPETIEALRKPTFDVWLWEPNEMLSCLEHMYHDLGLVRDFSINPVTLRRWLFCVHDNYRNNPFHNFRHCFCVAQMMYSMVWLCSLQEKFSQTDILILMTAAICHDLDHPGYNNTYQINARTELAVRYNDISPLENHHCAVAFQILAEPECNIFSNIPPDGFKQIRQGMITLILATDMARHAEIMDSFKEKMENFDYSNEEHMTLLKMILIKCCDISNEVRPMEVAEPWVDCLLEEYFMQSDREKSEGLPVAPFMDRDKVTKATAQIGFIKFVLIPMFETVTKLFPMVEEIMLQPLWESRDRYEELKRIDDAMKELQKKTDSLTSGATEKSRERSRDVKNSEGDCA

[8] = biological target: cGMP-specific 3',5'-cyclic phosphodiesterase (Homo sapiens, UniProt O76074); assay: Inhibition of PDE5 (unknown origin)
Histone deacetylase 1 [9] = biological target: T2, Histone deacetylase 1; assay: Inhibition of HDAC1 (unknown origin)

IC50 [1]: 29.5 µM
Compound: O=C(NO)c1ccc(CN2CCCc3cc(Cl)ccc32)cc1

IC50 (Histone deacetylase 2 [2]): > 10 µM
IC50 (Histone deacetylase 1 [3]): > 10 µM
IC50 [4]: > 10 µM
IC50 (Histone deacetylase 3): > 10 µM
Compound: CN(Cc1ccc(C(=O)NO)cc1[18F])CC12CC3CC(CC(C3)C1)C2

IC50 [5]: 0.04 µM
IC50 (Histone deacetylase 2 [6]): 3.53 µM
IC50 [7]: 0.107 µM
IC50 [8]: > 10 µM
IC50 (Histone deacetylase 1 [9]): 0.593 µM
Compound: C[C@@H]1CN(Cc2ccc(C(=O)NO)cc2)C[C@H]1c1nc2c(cnn2C2CCCC2)c(=O)[nH]1
